Assay results: US20030203388A1, “Method for determining genotoxicity” (Pfizer Inc., priority 2002, published 2003)

Experiments:
[1] = tested on: GADD45β (X54149), GADD45 (U00937), AV138783, AI847051, AF055638, AI461837; experiment: gene expression analysis (Affymetrix mouse microarray chip U74); format: cell-based; conditions: L5178Y cells treated four hours
Procedure: Mouse lymphoma cell line L5178Y (ATCC No. CRL 9518, ATCC) were cultivated in RPMI medium (Invitrogen Life Technologies, Inc., Carlsbad, Calif.) supplemented with 10% fetal bovine serum and antibiotics penicillin and streptomycin at 37° C. Cells from exponentially growing cultures were seeded at a concentration 3×10^5 cells/ml and incubated for 24 hours and maintained below 1×10^6 cells/ml. […] After the treatment, the cells were washed in PBS (Invitrogen Life Technologies, Inc., Carlsbad, Calif.). Half of the cells where then immediately frozen and stored at −80° C. prior to gene expression analysis, as described in Example 2 below. The other half was allowed to recover in a fresh growth medium for 20 hours. Cell viability was determined based on a cell count. Cell viability results appear in FIG. 1 and FIG. 2 as a ratio between treated versus vehicle control. […]
Gene expression was measured using Affymetrix GeneChip® technology (Affymetrix, Inc., Santa Clara, Calif.) using standard protocols available from Affymetrix (see, GeneChip® Expression Analysis, Technical Manual, Rev. 2 (2001), Affymetrix, Inc., available at http://www.affymetrix.com/pdf/expression_manual.pdf). […] The hybridized chips were scanned using a Hewlett Packard GeneArray™ Scanner, (Hewlett Packard Company, Palo Alto, Calif.) and the resulting data were evaluated using Affymetrix Microarray suite software (Affymetrix). […]

L5178Y cells = experiment: in vitro micronucleus assay; format: cell-based, mouse; conditions: L5178Y cells treated four hours, 20 hours recovery; sodium chloride at high concentrations
Procedure: Mouse lymphoma cell line L5178Y (ATCC No. CRL 9518, ATCC) were cultivated in RPMI medium (Invitrogen Life Technologies, Inc., Carlsbad, Calif.) supplemented with 10% fetal bovine serum and antibiotics penicillin and streptomycin at 37° C. Cells from exponentially growing cultures were seeded at a concentration 3×10^5 cells/ml and incubated for 24 hours and maintained below 1×10^6 cells/ml. […] After the treatment, the cells were washed in PBS (Invitrogen Life Technologies, Inc., Carlsbad, Calif.). […] The other half was allowed to recover in a fresh growth medium for 20 hours. Cell viability was determined based on a cell count. […] The cells were then harvested for use in the in vitro micronucleus assay of Example 3 below.
Treated cells prepared according to Example 1 were attached to glass slides by dropping them onto the glass slides using a pipette after hypotonic treatment with 75 mM KCl (Sigma-Aldrich Corp., St Louis, Mo.) and fixation with 3:1 (v/v) MeOH:acetic acid (JT Baker, Inc., Phillipsburg, N.J.). The cells were then stained using 31.25 μg/ml solution of acridine orange (Molecular Probes, Inc., Eugene, Oreg.).
Micronuclei were counted using a Axiokop 2 fluorescent microscopy (Carl Zeiss Microlmaging, Inc., Thornwood, N.Y.).

`N.N.[Cl][Pt][Cl]` [cisplatin] was tested, and the “expression of GADD45β (X54149) and GADD45 (U00937)” value [1] was “increased expression”.
In the case of `[Cl-].[Na+]` [sodium chloride], the “genotoxic stress, as demonstrated using a micronucleus assay” value (L5178Y cells) is reported as “show evidence of genotoxic stress” and the “level of expression of these genes (GADD45β, GADD45, AV138783, AI847051, AF055638, AI461837)” value [1] is reported as “no effect”.
